Assay results as given in patent publication US8889682B2, “Inhibitors of bruton'S tyrosine kinase” (Hoffmann-La Roche Inc., priority 2011, dated 2014).

Tested on: B cell receptor-mediated activation of B cells in human blood (CD69 expression)
Test: Inhibition of B cell activation in whole blood measured by CD69 expression
Type: cell-based
Conditions: anti-IgM stimulation, 20 hours, CD69-positive cells that are also CD20-positive, read-out: HWB IC50
Procedure: Inhibition of B Cell Activation in Whole Blood Measured by CD69 Expression
A procedure to test the ability of Btk inhibitors to suppress B cell receptor-mediated activation of B cells in human blood is as follows:
Human whole blood (HWB) is obtained from healthy volunteers, with the following restrictions: 24 hr drug-free, non-smokers. Blood is collected by venipuncture into Vacutainer tubes anticoagulated with sodium heparin. Test compounds are diluted to ten times the desired starting drug concentration in PBS […], followed by three-fold serial dilutions in 10% DMSO in PBS to produce a nine point dose-response curve. […] HWB (100 μl) is added to each well, and after mixing the plates are incubated at 37 C, 5% CO2, 100% humidity for 30 minutes.
Included are induced control, unstained and single stains for compensation adjustments and initial voltage settings. […] Supernatants are removed via suction and the remaining pellets are lysed again with another 1 ml of 1× Pharmingen Lyse Buffer, and plates are spun down as before. Supernatants are aspirated and remaining pellets are washed in FACs buffer (PBS+1% FBS). […] Samples are transferred to a 96 well plate suitable to be run on the HTS 96 well system on the BD LSR II flow cytometer.
Using appropriate excitation and emission wavelengths for the fluorophores used, data are acquired and percent positive cell values are obtained using Cell Quest Software. Results are initially analyzed by FACS analysis software (Flow Jo).

IC50 [µM] | Compound
0.003 | CCN1CCn2nc(Nc3cc(-c4ccnc(-n5ccc6cc(C(C)(C)C)cc(F)c6c5=O)c4CO)nn(C)c3=O)cc2C1 [Compound I-25, 6-tert-Butyl-2-{4-[5-(5-ethyl-4,5,6,7-tetrahydro-pyrazolo[1,5-a]pyrazin-2-ylamino)-1-methyl-6-oxo-1,6-dihydro-pyridazin-3-yl]-3-hydroxymethyl-pyridin-2-yl}-8-fluoro-2H-isoquinolin-1-one]
0.062 | Cn1nc(-c2ccnc(-n3ccc4cc(C(C)(C)C)cc(F)c4c3=O)c2CO)cc(Nc2ccc(OC(C)(C)CN3CC(F)(F)C3)cn2)c1=O [Compound I-27, 6-tert-Butyl-2-[4-(5-{5-[2-(3,3-difluoro-azetidin-1-yl)-1,1-dimethyl-ethoxy]-pyridin-2-ylamino}-1-methyl-6-oxo-1,6-dihydro-pyridazin-3-yl)-3-hydroxymethyl-pyridin-2-yl]-8-fluoro-2H-isoquinolin-1-one]
0.074 | Cn1cc(-c2nccc(-n3ncc4cc(C(C)(C)C)cc(F)c4c3=O)c2CO)cc(Nc2ccc(C(=O)N3CCOCC3)cn2)c1=O [Compound I-28, 4-(6-tert-Butyl-8-fluoro-1-oxo-1H-phthalazin-2-yl)-3-hydroxymethyl-1′-methyl-5′-[5-(morpholine-4-carbonyl)-pyridin-2-ylamino]-1′H-[2,3′]bipyridinyl-6′-one]
0.162 | Cn1cc(-c2nccc(-n3ncc4cc(C(C)(C)C)cc(F)c4c3=O)c2CO)cc(Nc2ccc(S(C)(=O)=O)cn2)c1=O [Compound I-29, 4-(6-tert-Butyl-8-fluoro-1-oxo-1H-phthalazin-2-yl)-3-hydroxymethyl-5′-(5-methanesulfonyl-pyridin-2-ylamino)-1′-methyl-1′H-[2,3′]bipyridinyl-6′-one]
0.055 | Cn1nc(-c2ccnc(-n3ncc4cc(C(C)(C)C)cc(F)c4c3=O)c2CO)cc(Nc2ccc(OC(C)(C)CN3CC(F)(F)C3)cn2)c1=O [Compound I-30, 6-tert-Butyl-2-[4-(5-{5-[2-(3,3-difluoro-azetidin-1-yl)-1,1-dimethyl-ethoxy]-pyridin-2-ylamino}-1-methyl-6-oxo-1,6-dihydro-pyridazin-3-yl)-3-hydroxymethyl-pyridin-2-yl]-8-fluoro-2H-phthalazin-1-one]
0.036 | CN1CCn2nc(Nc3cc(-c4ccnc(-n5ccc6cc(C(C)(C)C#N)cc(F)c6c5=O)c4CO)nn(C)c3=O)cc2C1 [Compound I-31, 2-(8-Fluoro-2-{3-hydroxymethyl-4-[1-methyl-5-(5-methyl-4,5,6,7-tetrahydro-pyrazolo[1,5-a]pyrazin-2-ylamino)-6-oxo-1,6-dihydro-pyridazin-3-yl]-pyridin-2-yl}-1-oxo-1,2-dihydro-isoquinolin-6-yl)-2-methyl-propionitrile]
0.106 | Cn1nc(-c2ccnc(-n3ccc4cc(C(C)(C)C#N)cc(F)c4c3=O)c2CO)cc(Nc2ccc(OC(C)(C)CN3CC(F)(F)C3)cn2)c1=O [Compound I-32, 2-{2-[4-(5-{5-[2-(3,3-Difluoro-azetidin-1-yl)-1,1-dimethyl-ethoxy]-pyridin-2-ylamino}-1-methyl-6-oxo-1,6-dihydro-pyridazin-3-yl)-3-hydroxymethyl-pyridin-2-yl]-8-fluoro-1-oxo-1,2-dihydro-isoquinolin-6-yl}-2-methyl-propionitrile]
0.212 | Cn1nc(-c2ccnc(-n3ncc4cc(C(C)(C)C)ccc4c3=O)c2CO)cc(Nc2ccc(OC(C)(C)CN3CC(F)(F)C3)cn2)c1=O [Compound I-33, 6-tert-Butyl-2-[4-(5-{5-[2-(3,3-difluoro-azetidin-1-yl)-1,1-dimethyl-ethoxy]-pyridin-2-ylamino}-1-methyl-6-oxo-1,6-dihydro-pyridazin-3-yl)-3-hydroxymethyl-pyridin-2-yl]-2H-phthalazin-1-one]
3.5 | Cn1nc(-c2ccnc(-n3ncc4cc(C(C)(C)C)cc(F)c4c3=O)c2CO)cc(Nc2cc3n(n2)CC[N+](C)([O-])C3)c1=O (stereo not drawn) [Compound I-34, 6-tert-Butyl-8-fluoro-2-{3-hydroxymethyl-4-[1-methyl-5-(5-methyl-5-oxy-4,5,6,7-tetrahydro-pyrazolo[1,5-a]pyrazin-2-ylamino)-6-oxo-1,6-dihydro-pyridazin-3-yl]-pyridin-2-yl}-2H-phthalazin-1-one]

Continued, compound first:

Compound | IC50 [µM]
CN1CCn2nc(Nc3cc(-c4ccnc(-n5ncc6cc(C(C)(C)C)ccc6c5=O)c4CO)nn(C)c3=O)cc2C1 [Compound I-19, 6-tert-Butyl-2-{3-hydroxymethyl-4-[1-methyl-5-(5-methyl-4,5,6,7-tetrahydro-pyrazolo[1,5-a]pyrazin-2-ylamino)-6-oxo-1,6-dihydro-pyridazin-3-yl]-pyridin-2-yl}-2H-phthalazin-1-one] | 0.024
CN1CCn2nc(Nc3cc(-c4ccnc(-n5ccc6cc(C7CC7)cc(F)c6c5=O)c4CO)nn(C)c3=O)cc2C1 [Compound I-20, 6-Cyclopropyl-8-fluoro-2-{3-hydroxymethyl-4-[1-methyl-5-(5-methyl-4,5,6,7-tetrahydro-pyrazolo[1,5-a]pyrazin-2-ylamino)-6-oxo-1,6-dihydro-pyridazin-3-yl]-pyridin-2-yl}-2H-isoquinolin-1-one] | 0.074
Cn1nc(-c2ccnc(-n3ncc4cc(C(C)(C)C)cc(F)c4c3=O)c2CO)cc(Nc2cc3n(n2)CCN(C2COC2)C3)c1=O [Compound I-21, 6-tert-Butyl-8-fluoro-2-{3-hydroxymethyl-4-[1-methyl-5-(5-oxetan-3-yl-4,5,6,7-tetrahydro-pyrazolo[1,5-a]pyrazin-2-ylamino)-6-oxo-1,6-dihydro-pyridazin-3-yl]-pyridin-2-yl}-2H-phthalazin-1-one] | 0.018
CCN1CCn2nc(Nc3cc(-c4ccnc(-n5ncc6cc(C(C)(C)C)cc(F)c6c5=O)c4CO)nn(C)c3=O)cc2C1 [Compound I-22, 6-tert-Butyl-2-{4-[5-(5-ethyl-4,5,6,7-tetrahydro-pyrazolo[1,5-a]pyrazin-2-ylamino)-1-methyl-6-oxo-1,6-dihydro-pyridazin-3-yl]-3-hydroxymethyl-pyridin-2-yl}-8-fluoro-2H-phthalazin-1-one] | 0.044
CN1CCn2nc(Nc3cc(-c4ccnc(-n5ccc6cc(C(C)(C)C)cc(F)c6c5=O)c4CO)nn(C)c3=O)cc2C1 [Compound I-23, 6-tert-Butyl-8-fluoro-2-{3-hydroxymethyl-4-[1-methyl-5-(5-methyl-4,5,6,7-tetrahydro-pyrazolo[1,5-a]pyrazin-2-ylamino)-6-oxo-1,6-dihydro-pyridazin-3-yl]-pyridin-2-yl}-2H-isoquinolin-1-one] | 0.015
Cn1nc(-c2ccnc(-n3ccc4cc(C(C)(C)C)cc(F)c4c3=O)c2CO)cc(Nc2cc3n(n2)CCN(C2COC2)C3)c1=O [Compound I-24, 6-tert-Butyl-8-fluoro-2-{3-hydroxymethyl-4-[1-methyl-5-(5-oxetan-3-yl-4,5,6,7-tetrahydro-pyrazolo[1,5-a]pyrazin-2-ylamino)-6-oxo-1,6-dihydro-pyridazin-3-yl]-pyridin-2-yl}-2H-isoquinolin-1-one] | 0.006
